Results from PMC7725506, “Functional Diversification of SRSF Protein Kinase to Control Ubiquitin-Dependent Neurodevelopmental Signaling” (Developmental Cell, 2020).

Tests used:
RNF12 SR-motif = RNF12 SR-motif phosphorylation in mESCs by phos-tag immunoblotting; assay type: cell-based, mouse; conditions: 10 μM, 4 h
Source text: RNF12 4xSA = S212A/S214A/S227A/S229A. (B) Rlim^−^/y mESCs were transfected with the indicated RNF12 constructs and lysates treated with λ-phosphatase and analyzed by phos-tag immunoblotting for RNF12. Unphosphorylated recombinant RNF12 is included as a control. […] RNF12 4xSA is included as an unphosphorylated control. […] (F) Phosphorylated peptides detected by mass spectrometry following in vitro phosphorylation of RNF12 by SRPK1. pS, phospho-serine. (G) Autoradiography of RNF12 WT or S212A/S214A/S227A/S229A (4xSA) following a radioactive kinase reaction with SRPK1, SRPK2, or SRPK3. RNF12 protein is detected by Coomassie staining. (H) Srpk1^+/+ and Srpk1^−/− mESCs were transfected with control or SRPK2 siRNA and RNF12 SR-motif phosphorylation analyzed by phos-tag immunoblotting for RNF12. SRPK2, SRPK1, RNF12, and ERK1/2 levels were determined by immunoblotting. Related to Figure S2; Tables S3 and S4.
All compounds were diluted in DMSO and mESCs treated with 10 μM inhibitor for 4 h prior lysis unless indicated otherwise. […] For proteasome inhibition mESCs were treated with 10 μM MG132 (Sigma Aldrich) for 6 h. All chemicals are listed in the Key Resource Table.
Phos-tag analyses were performed by loading protein samples containing 10 mM MnCl2 in 8% polyacrylamide gels containing 50 μM Phos-tag reagent (MRC-PPU reagents and services) and 0.1 mM MnCl2. After electrophoresis, gels were washed three times for 10 mins in Transfer buffer (48 mM Tris, 39 mM Glycine, 20% Methanol) supplemented with 20 mM EDTA. Proteins were then transferred to Nitrocellulose membranes, blocked and probed with the indicated antibodies. All protein signals were quantified using Image Studio (LI-COR Biosciences) or Image Lab software (Bio-Rad). Primary antibodies are listed in the Key Resource Table. […]
SR-motif phosphorylation of HA-immunoprecipitated RNF12 analysed by phos-tag immunoblotting.
HA-RNF12 levels are shown as a control. Fully phosphorylated (4-P) and unphosphorylated (0-P) RNF12 SR-motif is indicated by open (○) and closed (●) circles respectively.
Data are represented as mean ± S.D. (n=3). (C) RNF12 expressing mESCs were treated with 10 […]
immunoblotting. HA-RNF12 and ERK1/2 levels are shown as a control. (D) RNF12 expressing […]
5 h (+ wash-out). RNF12 phosphorylation was analysed via phos-tag immunoblotting. ERK1/2 levels are shown as a loading control. (E) Multiple Srpk1-/- and Srpk2-/- mESC clones were […]

RNF12 phospho-Ser214 = experiment: RNF12 SR-motif phosphorylation in mESCs, immunoblotting for RNF12 phospho-Ser214 and total RNF12; assay type: cell-based, mouse; conditions: 10 μM, 4 h
[1] = system: Foxp1 exon 16-16b alternative splicing switch; experiment: Foxp1 exon 16-16b incorporation in mESCs by quantitative RT-PCR; assay type: cell-based, mouse; conditions: 8 h
Description: SRSF phosphorylation, SRPK1, SRPK2, and ERK1/2 levels were determined by immunoblotting. Expected positions of SRSFs that are not detected are shown in gray. Quantification of SRSF phosphorylation (Right). Data represented as mean ± SEM (n = 4). […] Neuro 2a is a control for exon 16b exclusion in differentiated cells (Bottom). Data represented as mean ± SEM (n = 3). […] Exon 16 inclusion: (^∗∗∗∗) p < 0.0001, Exon 16b inclusion: (^∗) p = 0.0164, p = 0.0485, and p = 0.0489 (left to right). Ratio exon 16b/16: (^∗∗∗∗) p < 0.0001, (^∗∗∗) p = 0.0003. (C) SRPK substrates predicted using ScanProsite and grouped according to UniProt functions. (D) RNF12 phosphorylation sites detected by mass-spectrometry. LZL, leucine-zipper like; NLS, nuclear localization signal; NES, nuclear export signal; RING, RING E3 ubiquitin ligase catalytic domain. (E) CMGC family kinase copy numbers in mESCs determined by quantitative proteomics and represented using Kinoviewer. (F) CMGC kinase (200 mU) phosphorylation of the RNF12 SR-motif in vitro was determined by immunoblotting for RNF12 phospho-Ser214 and total RNF12. […] Normalized RNF12 Ser214 phosphorylation is shown below. Data represented as mean ± SEM (n = 3). […] RNF12 SR-motif phosphorylation was analyzed by immunoblotting for RNF12 phospho-Ser214 and RNF12. SRPK1 and SRPK2 levels are shown as a loading control, Related to Figure S1; Tables S1 and S2.
Total RNA extraction and reverse transcription was performed as described. Quantitative PCR reactions using SsoFast EvaGreen Supermix (Bio-Rad) were performed in a CFX384 real time PCR system (Bio-Rad). Relative RNA expression was calculated through the ΔΔCt method and normalised to Gapdh expression. Data was analysed in Excel (Microsoft) and statistical analysis performed in GraphPad Prism v7.0c software (GraphPad Software Inc.).

[2] = system: Ser-Arg rich splicing factors (SRSF); experiment: SRSF phosphorylation in mESCs, immunoblotting with phosphoepitope SR proteins antibody; assay type: cell-based, mouse; conditions: 10 μM, 4 h
SRPK1 = SRPK1 (Homo sapiens, UniProt Q96SB4); assay type: biochemical; conditions: read-out: IC50, inhibition of RNF12 phosphorylation by SRPK1
Description: Cells were lysed, and 1.5 mg of protein immunoprecipitated with 2 μg of SRPK1 or SRPK2 antibodies (BD Biosciences). Immunoprecipitates were then washed with lysis buffer supplemented with 500 mM NaCl and half of the sample was resuspended in loading buffer. The remainder was subjected to in vitro phosphorylation assay containing 0.5 μg RNF12 and 2 mM ATP in kinase buffer (50 mM Tris-HCl [pH 7.5], 0.1 mM EGTA, 10 mM MgCl2, 2 mM DTT) and incubated at 30°C for 30 min. […] For radioactive in vitro kinase assays, reactions were supplemented with 1 μCi γ-^32P ATP. Reactions were incubated at 30°C for 30 min in presence or absence of inhibitor as indicated and samples subjected to polyacrylamide electrophoresis and immunoblot or Coomassie blue staining and signal detected via ECL, infrared detection or autoradiography.
Supplemental Figure Legends
(Related to Figure 1). (A) Wild-type (WT) mESCs were analysed for protein copy number by absolute quantitative proteomics. […]
Data are represented as mean ± S.E.M. (n=3). […] ND = not detected. (B) Inhibition of RNF12 phosphorylation in vitro by SRPK1 and SRPK2 in the presence of varying concentrations of the indicated SRPK inhibitors was determined by immunoblotting for RNF12 phospho-Ser214 (Left). […] Immunoblots were quantified to generate SRPK inhibitor dose-response curves for inhibition of RNF12 phosphorylation by SRPK1 and SRPK2 in vitro (Right). […]

RNF12 4xSA-KI mESCs = experiment: RNF12 localization by immunofluorescence in RNF12 4xSA-KI mESCs; assay type: cell-based, mouse; conditions: 30 nM, 6 h
Description: Figure 3 SRPK Phosphorylation of RNF12 Regulates Nuclear Anchoring and E3 Ubiquitin Ligase Activity (A) RNF12 localization in wild-type knockin (WT-KI), SR-motif phosphorylation site knockin (4xSA-KI), or SR-motif deletion (ΔSR-KI) mESCs was determined by immunofluorescence. Scalebar: 20 μm (Left). Quantification of the Nucleus/cytosol fluorescence intensity ratio (Right). Data represented as mean ± SEM. […] (^∗∗∗∗) p < 0.0001. (B) RNF12 4xSA-KI mESCs were treated with 30 nM leptomycin B for 6 h and RNF12 localization analyzed by immunofluorescence. Scale bar: 20 μm (Top). Quantification of the nucleus/cytosol fluorescence intensity ratio (Bottom). […] (^∗∗∗∗) p < 0.0001. (C) FLAG-tagged SRPK1 and SRPK2 were expressed in mESCs and localization of SRPKs and RNF12 analyzed by immunofluorescence. Scale bar: 20 μm (Left). Quantification of the cytosol/nucleus fluorescence intensity ratio (Right). […] (^∗∗∗∗) p < 0.0001. […] RNF12, REX1 and ERK1/2 were detected by immunoblotting. (^∗) indicates non-specific signal. (E) REX1 levels were analyzed in RNF12 WT-KI, 4xSA-KI, ΔSR-KI, and W576Y-KI mESCs by immunoprecipitation followed by immunoblotting. ERK1/2 levels were detected by immunoblotting. (F) REX1 half-life was determined in RNF12 WT-KI, 4xSA-KI, ΔSR-KI, and W576Y-KI mESCs by immunoblotting. (Top) quantification of HA-REX1 protein levels normalized to ERK1/2 and calculated protein half-life (Bottom). […]

SRPK1, sequence (Q96SB4 whole entry): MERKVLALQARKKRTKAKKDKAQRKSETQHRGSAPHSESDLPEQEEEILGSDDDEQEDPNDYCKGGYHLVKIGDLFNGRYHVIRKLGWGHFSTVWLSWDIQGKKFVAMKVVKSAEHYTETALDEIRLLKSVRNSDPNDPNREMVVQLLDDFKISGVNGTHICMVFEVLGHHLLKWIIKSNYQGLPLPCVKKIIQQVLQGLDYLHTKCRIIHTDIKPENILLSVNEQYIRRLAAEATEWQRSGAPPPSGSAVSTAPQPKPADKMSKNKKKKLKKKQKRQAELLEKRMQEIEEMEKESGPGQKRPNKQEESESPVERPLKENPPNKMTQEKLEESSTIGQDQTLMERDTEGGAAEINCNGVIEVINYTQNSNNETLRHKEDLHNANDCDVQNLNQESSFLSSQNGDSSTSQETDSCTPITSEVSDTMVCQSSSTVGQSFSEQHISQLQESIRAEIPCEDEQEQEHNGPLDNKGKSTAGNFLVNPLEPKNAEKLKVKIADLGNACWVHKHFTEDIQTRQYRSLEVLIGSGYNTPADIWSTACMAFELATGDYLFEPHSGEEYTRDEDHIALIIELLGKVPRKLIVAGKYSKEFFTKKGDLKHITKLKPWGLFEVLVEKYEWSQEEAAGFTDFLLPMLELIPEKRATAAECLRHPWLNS

Row | Structure (SMILES) | RNF12 SR-motif phosphorylation (phos-tag) (RNF12 SR-motif) | RNF12 phospho-Ser214/total ratio (RNF12 phospho-Ser214) | other results
1 | CN1CCN(C(=O)C(C)(C)c2ccc(C(=O)Nc3cn4cc(-c5ccncc5)ccc4n3)cc2)CC1 [CLK-IN-T3] | minor effect | little impact | Foxp1 exon 16b-exon 16 inclusion ([1]; 1 μM): promotes exon 16b inclusion while suppressing inclusion of exon 16; SRSF phosphorylation [2]: widespread, robust inhibition
2 | COc1ccc2c(C)nc(Nc3nc(C)c(C)c(=O)[nH]3)nc2c1 [Madrasin] |  |  | Foxp1 exon 16b-exon 16 inclusion ([1]; 10 μM): promotes inclusion of exon 16b over exon 16
3 | O=C1NC(=NCc2cccs2)S/C1=C\c1ccc2ncccc2c1 [RO-3306] | little impact | some effect | 
4 | O=C(Nc1cc(C(F)(F)F)ccc1N1CCN(Cc2ccccn2)CC1)c1ccc(-c2ccncc2)o1 [SPHINX31] | minor effect |  | 
5 | O=C(Nc1cc(C(F)(F)F)ccc1N1CCCCC1)c1ccncc1 [SRPIN340] |  |  | IC50 (SRPK1): 4.7 µM
6 | CN1CC[C@H](c2c(O)cc(O)c3c(=O)cc(-c4ccccc4Cl)oc23)[C@H](O)C1 [flavopiridol] | little impact | some effect | 
7 | CCC(=C/[C@H](C)C/C=C/C(C)=C/[C@@H](C)C(=O)[C@@H](C)[C@H](O)[C@@H](C)C/C(C)=C/C(=O)O)/C=C/[C@@H]1OC(=O)C=C[C@@H]1C [leptomycin B] |  |  | RNF12 4xSA localization (RNF12 4xSA-KI mESCs): primarily nuclear; nucleus/cytosol ratio of RNF12 4xSA (fluorescence intensity, mean) (RNF12 4xSA-KI mESCs): 4.08
